Data set [1] relates to Respiratory syncytial virus (RSV) type A, strain A2 (ATCC VR-1540). The data set can be described thus: dNHBE assay: RSV virus yield reduction (EC90). In kind it is cell-based. Conditions: human respiratory syncytial virus, RSV (A2) in dNHBE cells; concentration reducing virus yield by 1 log10; mean of at least two experiments. The procedure: (§1) Differentiated normal human bronchial epithelial (dNHBE) cells were grown on 6 mm mesh disks in transwell inserts to approximately 1.2×10^6 cells/disk and disks were transferred to individual wells of a 6-well plate. 1 mL of proprietary culture medium was added to the basolateral side of the cells and the apical side was exposed to a humidified 95% air/5% CO2 environment. Cells were cultured at 37° C. for one day and then the mucin layer was removed from the apical side of the cells by repeated (3×) washing with 500 μL 30 mM HEPES buffered saline solution and culture medium on the basal side was replenished.
Respiratory syncytial virus (RSV) type A, strain A2 (ATCC VR-1540), previously passaged in MA-104 cells to make working stock cultures, was diluted 1/10 in medium before infection, using a multiplicity of infection (MOI) of ≤0.03 CCID50 per cell.
(§2) Various concentrations of test compounds in medium were applied in duplicate to the apical (140 μL) and basal sides (1 mL) for a 1 hour pre-treatment, followed by addition of 140 μL of virus inoculum to each cell insert on the apical side. The viral inoculum and treatments were removed after 2 hours. Control cells were treated with placebo (culture medium only). Following infection, the apical medium was removed and the basal side was replaced with fresh compound in medium. The cells were maintained at the air-liquid interface, and cell culture medium on the basal side was replaced daily with fresh medium containing test compound. After 4 days, the liquid was removed from the basal side and discarded and virus released into the apical compartment was harvested by the addition of 500 μL of culture medium. The medium was thoroughly mixed, then removed, diluted 1:1 with 40% sucrose and stored at ≤−80° C.
To determine the virus titer from each treated cell culture, MA-104 cells were seeded in 96-well plates and grown overnight (37° C.) to confluence. Samples containing virus were diluted in 10-fold increments in infection medium and 200 μL of each dilution transferred into respective wells of a 96-well microtiter plate. Four microwells were used for each dilution to determine 50% viral endpoints. After 7 days of incubation, each well was scored positive for virus if any cytopathic effect was observed as compared with the uninfected control. The virus dose that was able to infect 50% of the cell cultures (CCID50 per 0.1 mL) was calculated by the Reed-Muench method. This was repeated in duplicate for each test sample, so that values reported are an average of 2 independent CCID5o determinations. Untreated, uninfected cell controls were tested as negative controls. Statistical differences in the titers were evaluated with a one-way analysis of variance (ANOVA) followed by Dunnett's multiple comparisons test compared with the untreated virus controls.
(§3) Concentrations of test compounds that reduced virus yield by 1 log10 (90% effective concentration; EC90) were calculated by regression analysis. The reported EC90 value is the mean of at least two experiments. Potential toxicity of the test compounds was evaluated microscopically.

Data set [2] deals with Differentiated normal human bronchial epithelial (dNHBE) cells. The data set can be described thus: dNHBE assay: toxicity evaluated microscopically. In kind it is cell-based. Also noted: unit not given here. The protocol: as §1, §2, §3

A word on the EC90: it is the concentration needed for an effect of 90%. The compound `CC(C)OC(=O)[C@H](C)N[P@](=O)(OC[C@@]1(C)O[C@@H](n2cnc3c(N(C)C)nc(N)nc32)[C@H](F)[C@@H]1O)Oc1ccccc1` [AA] came in with an EC90 in data set [1] of 3500 nM. Also, the Visual toxicity in data set [2] is on record as more than 167.

For `COc1nc(N(C)C)c2ncn([C@@H]3O[C@](C)(CO[P@@](=O)(N[C@@H](C)C(=O)OC(C)C)Oc4ccccc4)[C@@H](O)[C@H]3F)c2n1` [AF, (S)-Isopropyl 2-(((S)-(((2R,3R,4R,5R)-5-(6-(dimethylamino)-2-methoxy-9H-purin-9-yl)-4-fluoro-3-hydroxy-2-methyltetrahydrofuran-2-yl)methoxy)(phenoxy)phosphoryl)amino) propanoate], the 90% effect level in data set [1] (EC90) was put at 180 nM. The same compound yielded a Visual toxicity in data set [2] of more than 16.

Compound `CC(C)OC(=O)[C@H](C)N[P@](=O)(OC[C@@]1(CCl)O[C@@H](n2cnc3c(N(C)C)nc(N)nc32)[C@H](F)[C@@H]1O)Oc1ccccc1` [AG, (S)-Isopropyl 2-(((S)-(((2R,3R,4R,5R)-5-(2-amino-6-(dimethylamino)-9H-purin-9-yl)-2-(chloromethyl)-4-fluoro-3-hydroxytetrahydrofuran-2-yl)methoxy)(phenoxy)phosphoryl)amino) propanoate] registered an EC90 in data set [1] of less than 160 nM. Besides, the Visual toxicity in data set [2] was more than 15.

Compound `CNc1nc(F)nc2c1ncn2[C@@H]1O[C@](CCl)(CO[P@@](=O)(N[C@@H](C)C(=O)OC(C)C)Oc2ccccc2)[C@@H](O)[C@H]1F` [AJ, (S)-Isopropyl 2-(((S)-(((2R,3R,4R,5R)-5-(6-(methylamino)-2-fluoro-9H-purin-9-yl)-2-(chloromethyl)-4-fluoro-3-hydroxytetrahydrofuran-2-yl)methoxy)(phenoxy)phosphoryl)amino) propanoate] displayed an EC90 in data set [1] of more than 1600 nM. This compound came in with a Visual toxicity in data set [2] of more than 1.6.

In data set [1], `CNc1nc(N)nc2c1ncn2[C@@H]1O[C@](C)(CO[P@@](=O)(N[C@@H](C)C(=O)OC(C)C)Oc2ccccc2)[C@@H](O)[C@@H]1F` [AK, (S)-Isopropyl 2-(((S)-(((2R,3R,4S,5R)-5-(2-amino-6-(methylamino)-9H-purin-9-yl)-4-fluoro-3-hydroxy-2-methyltetrahydrofuran-2-yl)methoxy)(phenoxy)phosphoryl)amino) propanoate] displayed an EC90 of 1100 nM. This compound also registered a Visual toxicity in data set [2] of more than 1.7.

As for `CNc1nc(N)nc2c1ncn2[C@@H]1O[C@](CCl)(CO[P@@](=O)(N[C@@H](C)C(=O)OC(C)C)Oc2ccccc2)[C@@H](O)[C@@H]1F` [AL, (S)-Isopropyl 2-(((S)-(((2R,3R,4S,5R)-5-(2-amino-6-(methylamino)-9H-purin-9-yl)-2-(chloromethyl)-4-fluoro-3-hydroxytetrahydrofuran-2-yl)methoxy)(phenoxy)phosphoryl)amino) propanoate], the EC90 in data set [1] is more than 1600 nM. In addition, the Visual toxicity in data set [2] is recorded as more than 1.6.

In data set [1], `CNc1nc(OC)nc2c1ncn2[C@@H]1O[C@](C)(CO[P@@](=O)(N[C@@H](C)C(=O)OC(C)C)Oc2ccccc2)[C@@H](O)[C@H]1F` [AM, (S)-Isopropyl 2-(((S)-(((2R,3R,4R,5R)-5-(6-(methylamino)-2-methoxy-9H-purin-9-yl)-4-fluoro-3-hydroxy-2-methyltetrahydrofuran-2-yl)methoxy)(phenoxy)phosphoryl)amino) propanoate] yielded an EC90 of 1100 nM. In addition, the Visual toxicity in data set [2] was more than 1.7.

Take `CNc1nc(OC)nc2c1ncn2[C@@H]1O[C@](CCl)(CO[P@@](=O)(N[C@@H](C)C(=O)OC(C)C)Oc2ccccc2)[C@@H](O)[C@H]1F` [AN, (S)-Isopropyl 2-(((S)-(((2R,3R,4R,5R)-5-(6-(methylamino)-2-methoxy-9H-purin-9-yl)-2-(chloromethyl)-4-fluoro-3-hydroxytetrahydrofuran-2-yl)methoxy)(phenoxy)phosphoryl)amino) propanoate]: in data set [1], the EC90 is more than 1600 nM. Further, in data set [2], the Visual toxicity is more than 1.6.

Values taken from patent US10202412B2, “β-D-2′-deoxy-2′-substituted-4′-substituted-2-substituted-N6-substituted-6-aminopurinenucleotides for the treatment of paramyxovirus and orthomyxovirus infections” (Atea Pharmaceuticals, Inc., priority 2016, dated 2019).
